{"source": "patent US20070092907A1", "about": "“Methods of screening compound probes” (priority 2005, published 2007)", "key": {"[1]": {"test_system": "C6 cells", "experiment": "Mitochondrial and plasma membrane potential dependent uptake in C6 cells (CCCP, valinomycin, high K+ HEPES buffer), MALDI-TOF-MS", "format": "cell-based, rat", "details": "for decrease in uptake on depolarization of the plasma membrane (high K+ vs low K+ buffer): 90 min exposure time; for effect of CCCP on uptake: CCCP at 1 μM concentration; for nature of uptake (membrane potential dependence): C6 cells, CCCP, valinomycin, high K+ buffer", "method": "K^+-ionophore valinomycin was dissolved in ethanol and also diluted with low K^+ buffer. Final concentrations of ethanol and DMSO were below 0.1%. Varying concentrations of CCCP and valinomycin were added to the 0.5×10^6 cells in low K^+ HEPES buffer 30 min prior to the start of the experiment. […] The viability and the integrity of the cells after treatment with inhibitors and high K^+ buffer were examined using Trypan blue."}, "[2]": {"test_system": "rat glioma C6 cells", "experiment": "C6 cell uptake of phosphonium cations determined by MALDI-TOF-MS", "format": "cell-based", "details": "for percent cell uptake: plateau at ~90 minute after incubation; for cell uptake / accumulation (in words): up to 90 min", "method": "MALDI-TOF Mass Spectrometry: MALIDI-TOF-MS experiments were performed on a Perseptive Voyager-DE RP Biospectrometry instrument (Framingham, Mass.). On the MALDI-TOF-MS target plate, 1 μL each of sample solution and 1 μL of the matrix were mixed. […] For each analysis, the laser spot randomly hit the sample to generate an averaged MALDI-TOF-MS spectrum. Three spectra were produced for each sample, and analyte to internal standard response ratios were averaged.\nC6 cells (0.5×10^6/50 μL) were incubated with 10 μL 100 μM stock phosphonium salts solution (5 μM final concentration) and 140 μL HEPES buffer from 10 to 90 min at room temperature. The cells were centrifuged (250×g) for three minutes and washed twice with cold PBS buffer at specified times. Cell pellets were then lysed with 150 μL cold spectral grade water, followed by freezing in dry ice. Right before the MALDI-TOF-MS analysis, the frozen cell solution was thawed and centrifuged at 12000×g for 5 min. An aliquot of 90 μL of cell lysate and 10 μL of 10 μM internal standard MeTPP were mixed together, and 1 μL of solution was subjected to MALDI-TOF-MS analysis. Samples collected from three independent cell lysates were prepared for each study and subjected for MALDI-TOF-MS analysis.\nThen they were diluted with C6 cell lysate (0.5×10^6 cells per 150 μL, these cells were not incubated with any phosphonium compound prior to lysis) to make various concentrations of compound and stored at 0° C. One micromolar MeTPP in 10 μL volume, which was used as internal standard, and 10 μL phosphonium cations with concentrations ranging from 0.1 μM-1.5 μM were mixed together thoroughly. Subsequently, 1 μL aliquot and 1 μL matrix αCHCA were deposited on the target plate and dried for MALDI-TOF-MS analysis. Triplicate samples were prepared and analyzed."}, "[3]": {"test_system": "C6 cells", "experiment": "C6 cell uptake of 3H-TPP by scintillation counting", "format": "cell-based, rat", "details": "5 μM, 25° C., 90 min", "method": "Cell Uptake of ^3H-tetraphenylphosphonium (^3H-TPP): C6 cell uptake of ^3H-TPP was also performed for direct comparison with cell uptakes of TPP and FTPP determined through MALDI-TOF-MS. Briefly, 0.5×10^6 cells were incubated with 5 μM ^3H-TPP [^3H-TPP was spiked with TPP to make a final concentration of 12.21 GBq/mmol (0.33 Ci/mmol)] from 10 to 90 min in a 200 μL HEPES buffer at room temperature. Cell lysate was prepared using the same procedure as described in the Cell Uptake Studies of Phosphonium Cations section, and the radioactivity of cell lysate was counted. Triplicate samples were obtained for all uptake studies. Data were expressed as the accumulation of the amount of probe in each cell or percent cell uptake (fmols/cell, % cell uptake). ^3H analyses were performed with a Beckman LS-6500 liquid scintillation counter with Biosafe II scintillation fluid (Research Products International, Mount prospect, Ill.). The attenuation and quenching effects resulting from the cell lysate used in this experiment were determined to be negligible, and the disintegration per minute (dpm) was obtained by correcting for background activity and efficiency (69.3% for ^3H)."}}, "note": "“Also recorded” adds a separate entry of the source.", "data": [{"molecule": "Fc1ccc(C[P+](c2ccccc2)(c2ccccc2)c2ccccc2)cc1.[I-]", "note": "[FBnTP, 4-fluorobenzyl-triphenylphosphonium iodide]", "values": [{"measurement": "decrease in uptake on depolarization of the plasma membrane (high K+ vs low K+ buffer)", "setting": "[1]; 5 μM probe", "result": 1.5, "unit": "fold"}, {"measurement": "effect of CCCP on uptake", "setting": "[1]; 5 μM probe", "result": "can also be inhibited"}, {"measurement": "nature of uptake (membrane potential dependence)", "setting": "[1]", "result": "electrogenic and driven by the plasma and mitochondrial membrane potentials"}, {"measurement": "uptake compared with tetraphenylphosphonium analogs (TPP and FTPP)", "setting": "[2]; 5 μM, C6 cells", "result": "much lower uptake"}]}, {"molecule": "BrCCCC[P+](c1ccccc1)(c1ccccc1)c1ccccc1.[Br-]", "note": "[BrTPP, (4-bromobutyl) triphenyl-phosphine bromide]", "values": [{"measurement": "uptake compared with tetraphenylphosphonium analogs (TPP and FTPP)", "setting": "[2]; 5 μM, C6 cells", "result": "much lower uptake"}]}, {"molecule": "C[P+](c1ccccc1)(c1ccccc1)c1ccccc1.[Br-]", "note": "[MeTPP, methyltriphenyl phosphonium bromide, reference compound]", "values": [{"measurement": "percent cell uptake", "setting": "[2]; 5 μM, C6 cells", "result": 1.06, "unit": "%"}]}, {"molecule": "[Br-].c1ccc([P+](c2ccccc2)(c2ccccc2)c2ccccc2)cc1", "note": "[TPP, tetraphenylphosphonium bromide, reference compound]", "values": [{"measurement": "amount accumulated per cell", "setting": "[2]; 5 μM, 10 mins post incubation", "result": 0.11, "unit": "fmol TPP per cell"}, {"measurement": "incubation time to maximum / steady-state uptake", "setting": "[2]; 5 μM, C6 cells", "result": 60, "unit": "min"}, {"measurement": "percent cell uptake", "setting": "[2]; 5 μM, C6 cells", "result": 11.44, "unit": "%"}]}, {"molecule": "Cl.[Cl-].c1ccc([P+](Cc2ccccn2)(c2ccccc2)c2ccccc2)cc1", "note": "[PyTPP, triphenyl(2-pyridylmethyl)phosphonium chloride hydrochloride]", "values": [{"measurement": "uptake compared with tetraphenylphosphonium analogs (TPP and FTPP)", "setting": "[2]; 5 μM, C6 cells", "result": "much lower uptake"}]}, {"molecule": "Fc1ccc([P+](c2ccc(F)cc2)(c2ccc(F)cc2)c2ccc(F)cc2)cc1.[I-]", "note": "[F4TPP, Tetra-4-fluorophenylphosphonium iodide]", "values": [{"measurement": "decrease in uptake on depolarization of the plasma membrane (high K+ vs low K+ buffer)", "setting": "[1]; 5 μM probe", "result": 3.0, "unit": "fold"}, {"measurement": "effect of CCCP on uptake", "setting": "[1]; 5 μM probe", "result": "can also be inhibited"}, {"measurement": "nature of uptake (membrane potential dependence)", "setting": "[1]", "result": "electrogenic and driven by the plasma and mitochondrial membrane potentials"}]}, {"molecule": "CCCC[P+](CCCC)(CCCC)CCCC.[Br-]", "note": "[TBuP, tetrabutylphosphonium bromide]", "values": [{"measurement": "decreased cellular accumulation compared to TPP", "setting": "[2]; 5 μM, C6 cells", "result": "~18", "unit": "fold"}, {"measurement": "cell uptake / accumulation (in words)", "setting": "[2]; 5 μM, C6 cells", "result": "lower cell uptake"}, {"measurement": "cell uptake / accumulation (in words)", "setting": "[2]; 5 μM, C6 cells, listed as TBuPP", "result": "very low cell accumulaiton"}]}, {"molecule": "O=C(O)CCCC[P+](c1ccccc1)(c1ccccc1)c1ccccc1.[Br-]", "note": "[CoTPP, (4-carboxybutyl)triphenyl-phosphonium bromide]", "values": [{"measurement": "cell uptake / accumulation (in words)", "setting": "[2]; 5 μM, C6 cells", "result": "either does not accumulate or accumulates minimally"}, {"measurement": "detection of compound in cell lysate by MALDI-TOF-MS", "setting": "[2]; C6 cell lysate after incubation with compound", "result": "could not be identified"}]}, {"molecule": "CCCC[P+](c1ccccc1)(c1ccccc1)c1ccccc1.[Cl-]", "note": "[BuTPP, butyltriphenylphosphonium chloride]", "values": [{"measurement": "uptake compared with tetraphenylphosphonium analogs (TPP and FTPP)", "setting": "[2]; 5 μM, C6 cells", "result": "much lower uptake"}]}, {"molecule": "^3H-tetraphenylphosphonium [^3H-TPP]", "values": [{"measurement": "time course of uptake by scintillation counting compared with MALDI-TOF-MS of TPP", "setting": "[3]", "result": "almost identical pattern and the same levels of uptake"}]}, {"molecule": "Fc1ccc([P+](c2ccccc2)(c2ccccc2)c2ccccc2)cc1", "note": "[FTPP, 4-Fluorophenyltriphenyl phosphonium]", "values": [{"measurement": "normalized uptake in presence of valinomycin", "setting": "[1]; 5 μM probe, 10 μM valinomycin, low K+ HEPES buffer, one hour incubation", "result": "about 72.8±3.6%"}, {"measurement": "normalized uptake in presence of CCCP", "setting": "[1]; 5 μM probe, 50 μM CCCP, low K+ HEPES buffer, one hour incubation", "result": "about 27.3±2.3%"}, {"measurement": "decrease in uptake on depolarization of the plasma membrane (high K+ vs low K+ buffer)", "setting": "[1]; 5 μM probe", "result": 3.5, "unit": "fold"}, {"measurement": "effect of CCCP on uptake", "setting": "[1]; 5 μM probe", "result": "significantly inhibited"}, {"measurement": "effect of valinomycin on uptake", "setting": "[1]; 5 μM probe, valinomycin at 1 μM concentration", "result": "significantly inhibited"}, {"measurement": "nature of uptake (membrane potential dependence)", "setting": "[1]", "result": "electrogenic and driven by the plasma and mitochondrial membrane potentials"}, {"measurement": "accumulation relative to MeTPP", "setting": "[2]; 5 μM, C6 cell culture", "result": 8, "unit": "times"}, {"measurement": "cell uptake relative to that of TPP", "setting": "[2]; 5 μM, C6 cells", "result": "over 80%"}, {"measurement": "percent cell uptake", "setting": "[2]; 5 μM, C6 cells", "result": 9.33, "unit": "%"}, {"measurement": "cell uptake / accumulation (in words)", "setting": "[2]; 5 μM, C6 cells", "result": "good cell uptake; also recorded: higher C6 cell uptake than both F4TPP and FBnTP"}]}]}
